Activity calls are given as the source filed them.
Tests used:
[1] = molecular target: T1, Replicative DNA helicase DnaB (Mycobacterium tuberculosis, UniProt P9WMR3); experiment: DnaB intein splicing inhibitors, dose response, biochemical, cell-free fluorescence (AID 449749); type: functional
T1 sequence (P9WMR3 whole entry): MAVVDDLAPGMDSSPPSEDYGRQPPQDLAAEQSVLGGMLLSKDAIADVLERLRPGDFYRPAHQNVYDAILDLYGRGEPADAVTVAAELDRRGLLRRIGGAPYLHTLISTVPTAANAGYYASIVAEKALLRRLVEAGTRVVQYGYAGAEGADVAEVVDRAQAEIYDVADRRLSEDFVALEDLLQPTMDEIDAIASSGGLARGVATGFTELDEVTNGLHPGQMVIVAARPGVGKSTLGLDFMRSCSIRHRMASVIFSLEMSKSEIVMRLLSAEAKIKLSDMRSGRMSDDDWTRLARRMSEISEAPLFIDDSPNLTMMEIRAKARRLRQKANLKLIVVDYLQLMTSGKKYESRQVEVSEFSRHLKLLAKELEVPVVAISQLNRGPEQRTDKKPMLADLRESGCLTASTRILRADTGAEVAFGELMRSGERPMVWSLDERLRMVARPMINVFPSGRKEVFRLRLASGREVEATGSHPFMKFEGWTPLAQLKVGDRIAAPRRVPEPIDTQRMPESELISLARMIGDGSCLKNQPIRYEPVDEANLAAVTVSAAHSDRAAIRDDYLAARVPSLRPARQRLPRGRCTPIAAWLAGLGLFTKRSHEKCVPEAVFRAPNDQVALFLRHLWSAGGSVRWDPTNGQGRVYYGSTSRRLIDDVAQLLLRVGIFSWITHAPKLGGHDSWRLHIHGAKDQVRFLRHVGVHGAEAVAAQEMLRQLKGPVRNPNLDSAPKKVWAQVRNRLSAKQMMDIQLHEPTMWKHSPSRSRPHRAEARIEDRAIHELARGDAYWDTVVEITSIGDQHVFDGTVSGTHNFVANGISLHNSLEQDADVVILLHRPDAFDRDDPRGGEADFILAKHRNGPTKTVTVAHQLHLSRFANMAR

[2] = growth suppression of PTEN-null colon cells, dose response, cell-based, HCT116 PTEN knockout (AID 1047); type: functional;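 further: HCT116 colon tumor cells with PTEN knocked out; cells exposed to compound for 60 hours before readout; potency for loss of cell viability measured by luminescence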
[3] = system: INS1; experiment: beta cell apoptosis inhibitors, cytokine rescue, dose response, luminescence, retest (AID 449756); type: functional, cell-based; details: Rattus norvegicus;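 further: cell death triggered by IL-1 beta plus TNF-alpha plus IFN-gamma mixture; protective hits raise ATP signal compared with cytokine alone wells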
[4] = growth suppression of beta-catenin-knockout colon cells, dose response, cell-based, HCT116, human colon tumor (AID 1045); type: functional;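 further: HCT116 colon tumor cells with beta catenin knocked out; cells exposed to compound for 60 hours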
[5] = molecular target: T2, Protein RecA (Mycobacterium tuberculosis, UniProt P9WHJ3); experiment: Fluorescence Cell-Free Homogeneous Dose Retest to Identify Inhibitors of RecA-Intein Splicing Activity. [Related pubchem assays (depositor defined):AID2097, AID2223, AID489010, AID492950]; type: functional
T2 sequence (P9WHJ3 whole entry): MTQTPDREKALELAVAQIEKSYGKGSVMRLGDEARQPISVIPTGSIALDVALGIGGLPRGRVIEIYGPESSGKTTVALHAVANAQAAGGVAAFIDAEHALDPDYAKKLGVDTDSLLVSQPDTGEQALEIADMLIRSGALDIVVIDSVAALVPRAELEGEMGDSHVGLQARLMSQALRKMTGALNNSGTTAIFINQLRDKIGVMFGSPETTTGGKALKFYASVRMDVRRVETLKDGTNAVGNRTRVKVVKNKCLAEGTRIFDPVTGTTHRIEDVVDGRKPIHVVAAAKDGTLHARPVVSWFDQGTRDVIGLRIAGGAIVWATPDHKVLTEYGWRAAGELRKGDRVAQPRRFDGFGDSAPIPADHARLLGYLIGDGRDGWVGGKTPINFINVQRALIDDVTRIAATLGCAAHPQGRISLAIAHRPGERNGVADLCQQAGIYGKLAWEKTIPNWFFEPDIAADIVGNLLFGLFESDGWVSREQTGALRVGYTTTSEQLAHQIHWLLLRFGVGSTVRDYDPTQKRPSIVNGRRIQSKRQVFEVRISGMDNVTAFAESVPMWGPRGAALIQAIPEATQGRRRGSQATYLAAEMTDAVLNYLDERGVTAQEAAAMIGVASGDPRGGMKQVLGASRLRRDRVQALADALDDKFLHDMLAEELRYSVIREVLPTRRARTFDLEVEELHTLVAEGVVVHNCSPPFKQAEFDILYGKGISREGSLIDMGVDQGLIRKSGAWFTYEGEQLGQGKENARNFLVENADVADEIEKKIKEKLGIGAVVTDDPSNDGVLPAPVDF

[6] = microbe, parasite or virus in culture; type: functional; details: Mycobacterium tuberculosis
[7] = molecular target: T3, Rac GTPase-activating protein 1 (Homo sapiens, UniProt Q9H0H5); experiment: MgcRacGAP GTPase-activating activity inhibitors, confirmation, biochemical, ADP Hunter fluorescence, primary and confirmatory (AID 624330); type: functional
T3 sequence (Q9H0H5 whole entry): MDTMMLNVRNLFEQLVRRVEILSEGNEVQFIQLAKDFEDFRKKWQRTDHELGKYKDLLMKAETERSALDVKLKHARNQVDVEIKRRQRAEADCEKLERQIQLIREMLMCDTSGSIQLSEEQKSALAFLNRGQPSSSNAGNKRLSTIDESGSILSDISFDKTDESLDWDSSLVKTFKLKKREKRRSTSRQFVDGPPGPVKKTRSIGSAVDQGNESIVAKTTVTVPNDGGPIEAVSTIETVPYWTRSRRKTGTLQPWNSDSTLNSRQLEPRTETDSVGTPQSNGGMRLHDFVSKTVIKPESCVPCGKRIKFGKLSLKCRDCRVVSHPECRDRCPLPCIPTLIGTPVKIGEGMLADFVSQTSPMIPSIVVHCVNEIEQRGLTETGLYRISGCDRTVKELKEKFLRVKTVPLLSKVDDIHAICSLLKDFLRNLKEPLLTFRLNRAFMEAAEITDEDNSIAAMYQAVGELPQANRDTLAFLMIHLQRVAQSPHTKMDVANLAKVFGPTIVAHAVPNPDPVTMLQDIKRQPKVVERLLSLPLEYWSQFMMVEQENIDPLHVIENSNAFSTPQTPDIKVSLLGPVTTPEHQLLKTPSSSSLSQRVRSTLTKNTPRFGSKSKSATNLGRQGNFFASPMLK

[8] = molecular target: Cytochrome P450 2C9 (Homo sapiens, UniProt P11712)
[9] = molecular target: T4, RNA-binding protein pos-1 (Caenorhabditis elegans, UniProt G5EF15); experiment: inhibitors of POS-1/mex-3 RNA binding, dose response, biochemical, fluorescence polarization (AID 1964);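 further: purified POS-1 fused to maltose binding protein made in E. coli; potency of compounds blocking POS-1 binding to fluorescent RNA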
T4 sequence (G5EF15 whole entry): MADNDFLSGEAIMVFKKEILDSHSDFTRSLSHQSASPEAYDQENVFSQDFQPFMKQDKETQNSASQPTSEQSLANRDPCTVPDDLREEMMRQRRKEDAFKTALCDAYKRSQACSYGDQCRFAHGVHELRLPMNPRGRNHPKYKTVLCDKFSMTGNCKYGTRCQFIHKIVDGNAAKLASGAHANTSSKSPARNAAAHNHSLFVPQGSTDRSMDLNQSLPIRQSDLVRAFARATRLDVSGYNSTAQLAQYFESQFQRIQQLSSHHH

[10] = molecular target: T5, Zinc finger protein mex-5 (Caenorhabditis elegans, UniProt Q9XUB2); experiment: MEX-5/TCR-2 RNA interaction inhibitors, dose response, biochemical, C. elegans, fluorescence polarization (AID 1960)
T5 sequence (Q9XUB2 whole entry): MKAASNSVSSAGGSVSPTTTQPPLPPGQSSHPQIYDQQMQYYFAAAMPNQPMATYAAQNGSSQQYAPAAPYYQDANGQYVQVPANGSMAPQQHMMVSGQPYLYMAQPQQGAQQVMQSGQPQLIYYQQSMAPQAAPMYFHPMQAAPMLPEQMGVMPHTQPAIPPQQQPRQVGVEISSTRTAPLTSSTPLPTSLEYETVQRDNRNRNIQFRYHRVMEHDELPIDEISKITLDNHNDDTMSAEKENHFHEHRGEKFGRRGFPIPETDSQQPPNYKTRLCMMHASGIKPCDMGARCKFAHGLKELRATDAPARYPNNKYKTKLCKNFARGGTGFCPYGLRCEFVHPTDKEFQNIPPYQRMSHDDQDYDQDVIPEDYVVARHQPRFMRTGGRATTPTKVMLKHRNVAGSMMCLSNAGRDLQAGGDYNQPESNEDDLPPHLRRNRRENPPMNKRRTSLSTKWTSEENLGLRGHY

[11] = molecular target: Nonstructural protein 1 (Influenza A virus, UniProt Q194T2); type: functional, Influenza A virus (A/California/07/2009(H1N1))
[12] = Luminescence Cell-Based Dose Retest to Confirm Inhibitors of Cancer Stem Cells. [Related pubchem assays (depositor defined):AID2717, AID2721]; type: functional; details: Homo sapiens
[13] = molecular target: Cytochrome P450 3A4 (Homo sapiens, UniProt P08684);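 further: CYP3A4 tested as one member of a cytochrome P450 panel screen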
[14] = molecular target: Cytochrome P450 2C19 (Homo sapiens, UniProt P33261); experiment: Cytochrome panel assay with activity outcomes. Panel member name: p450-cyp2c19 Compounds with AC50 equal or less than 10 uM are considered active; type: functional; details: read-out: AC50
[15] = Luminescence Cell-Based Dose Response HTS to Identify Activators of Luciferase Translation or Activity in H4 […] Cells. [Related pubchem assays: 1829 (Project Summary), 1814 (Primary HTS)]; type: functional
[16] = system: H4; experiment: Luminescence Cell-Based Dose Response HTS to Identify Activators of 5'UTR Stem-Loop Driven Prion Protein mRNA Translation in H4 Neuroglioblastoma Cells. [Related pubchem assays: 1829 (Project Summary), 1814 (Primary HTS)]; type: functional; details: Homo sapiens
[17] = HepG2 cell cytotoxicity, dose response, cytotoxicity control for Shn3 inhibitor project, CellTiter-Glo, cherry-picked (AID 624134); type: functional, cell-based
[18] = Luminescence Cell-Based Dose Response HTS to Identify Inhibitors of 5'UTR Stem-Loop Driven Prion Protein mRNA Translation in H4 Neuroglioblastoma Cells. [Related pubchem assays: 1827 (Project Summary), 1813 (Primary HTS)]; type: functional
[19] = inhibitors of firefly luciferase expression or activity, dose response, H4 neuroglioma cells, luminescence (AID 1990); type: functional, cell-based
[20] = inhibitors of SNCA 5'UTR-driven reporter translation, confirmation, H4 neuroglioma cells, luminescence (AID 1988); type: functional, cell-based
[21] = Shn3 3'UTR reporter inhibitors, dose response, cell-based, Clone20 osteoblasts, firefly luciferase, cherry-picked (AID 624132); type: functional;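 further: firefly luciferase luminescence from reporter carrying the Shn3 3'UTR in osteoblasts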
[22] = control 3'UTR Renilla luciferase suppression, dose response, counter-screen for Shn3 inhibitor project, cell-based, Clone20-Shn3RL, cherry-picked (AID 624133); type: functional

Sequence of Cytochrome P450 2C9 (P11712 whole entry, the tested form may be a part): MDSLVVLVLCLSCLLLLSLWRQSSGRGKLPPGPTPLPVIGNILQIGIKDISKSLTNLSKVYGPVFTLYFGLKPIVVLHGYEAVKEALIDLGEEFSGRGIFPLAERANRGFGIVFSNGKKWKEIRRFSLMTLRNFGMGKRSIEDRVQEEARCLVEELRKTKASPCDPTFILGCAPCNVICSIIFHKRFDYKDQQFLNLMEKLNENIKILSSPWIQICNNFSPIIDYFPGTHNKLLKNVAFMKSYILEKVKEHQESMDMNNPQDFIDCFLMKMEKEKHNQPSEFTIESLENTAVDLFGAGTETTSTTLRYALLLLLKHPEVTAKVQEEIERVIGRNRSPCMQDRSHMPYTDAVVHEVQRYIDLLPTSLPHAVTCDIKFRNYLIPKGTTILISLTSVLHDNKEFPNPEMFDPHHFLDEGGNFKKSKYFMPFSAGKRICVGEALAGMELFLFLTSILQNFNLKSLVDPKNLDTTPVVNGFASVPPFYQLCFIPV
Sequence of Cytochrome P450 2C19 (P33261 whole entry): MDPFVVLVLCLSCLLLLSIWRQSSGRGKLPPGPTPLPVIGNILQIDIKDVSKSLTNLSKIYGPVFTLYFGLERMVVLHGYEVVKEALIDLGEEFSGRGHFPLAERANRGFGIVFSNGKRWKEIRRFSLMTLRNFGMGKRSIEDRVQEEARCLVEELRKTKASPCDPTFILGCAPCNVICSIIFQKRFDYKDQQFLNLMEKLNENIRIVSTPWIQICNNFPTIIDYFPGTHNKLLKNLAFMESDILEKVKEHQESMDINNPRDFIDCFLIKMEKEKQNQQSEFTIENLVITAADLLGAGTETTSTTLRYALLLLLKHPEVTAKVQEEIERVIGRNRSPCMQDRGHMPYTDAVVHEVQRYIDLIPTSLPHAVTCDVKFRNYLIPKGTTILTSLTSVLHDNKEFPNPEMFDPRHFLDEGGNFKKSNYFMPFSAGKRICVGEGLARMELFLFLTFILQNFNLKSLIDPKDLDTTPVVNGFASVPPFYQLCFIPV
Sequence of Nonstructural protein 1 (Q194T2 whole entry): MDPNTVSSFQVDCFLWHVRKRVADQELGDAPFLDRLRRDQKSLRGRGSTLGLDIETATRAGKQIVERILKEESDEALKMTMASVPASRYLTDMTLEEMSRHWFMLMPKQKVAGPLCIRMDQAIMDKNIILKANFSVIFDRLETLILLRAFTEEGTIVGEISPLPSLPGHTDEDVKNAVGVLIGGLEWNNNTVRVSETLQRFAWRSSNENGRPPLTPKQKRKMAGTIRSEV
Sequence of Cytochrome P450 3A4 (P08684 whole entry): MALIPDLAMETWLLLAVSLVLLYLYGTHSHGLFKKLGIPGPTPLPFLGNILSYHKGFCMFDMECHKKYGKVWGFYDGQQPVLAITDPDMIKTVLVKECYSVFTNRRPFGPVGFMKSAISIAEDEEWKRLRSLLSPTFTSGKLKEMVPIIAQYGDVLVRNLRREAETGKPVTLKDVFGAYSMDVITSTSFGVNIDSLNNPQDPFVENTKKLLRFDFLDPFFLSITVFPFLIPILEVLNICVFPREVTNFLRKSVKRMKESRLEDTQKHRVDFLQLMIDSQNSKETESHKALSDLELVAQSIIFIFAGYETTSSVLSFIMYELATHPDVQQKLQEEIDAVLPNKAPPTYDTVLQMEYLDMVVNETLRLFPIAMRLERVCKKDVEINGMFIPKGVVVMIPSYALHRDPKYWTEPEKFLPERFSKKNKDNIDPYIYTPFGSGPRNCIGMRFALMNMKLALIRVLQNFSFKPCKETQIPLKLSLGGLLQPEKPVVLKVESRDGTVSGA

## N=c1c2c(-c3ccccc3)c(-c3ccccc3)n(Cc3ccco3)c2ncn1Cc1ccccc1
[1]
  AC50: 3.08 µM (active)
[2]
  EC50: 1.68 µM (active)
[3]
  AC50: 6.08 µM (active)
[4]
  EC50: 1.35 µM (active)
[5]
  EC50: 6.7 µM (active)

## COc1ccc(C2Oc3ccccc3C3=C2C(c2cccs2)n2ncnc2N3)cc1 (centres undefined)
[2]
  EC50: 8.88 µM (active)
[4]
  EC50: 7.97 µM (active)
[6]
  CC50: 16.8 µM (active)

## COCCCNCCCCOc1c(Cl)cc(C)cc1Br.O=C(O)C(=O)O
[7]
  IC50: 64.1 µM (active)
[8]
  AC50: inconclusive

## COc1ccc(/C=C2\SC(=S)N(CCCC(=O)NC3CCCC3)C2=O)cc1OC
[9]
  EC50: 57.5 µM (active)
[10]
  EC50: 55.7 µM (inconclusive)

## CC1=C/C(=N\Nc2ccccc2[N+](=O)[O-])CC(C)(C)C1
[11]
  IC50: 14.9 µM (active)

## Cc1ccc(-n2nc(C)c(/C=N/NC(=O)c3ccc(O)cc3O)c2O)cc1
[11]
  IC50: 4.44 µM (active)
[9]
  EC50: 76.9 µM (active)
[10]
  EC50: 22 µM (active)

## COc1ccc(Cc2nnc(N/N=C/c3ccccc3O)nc2O)cc1OC
[11]
  IC50: 1.42 µM (active)
[3]
  AC50: 0.834 µM (active)
[12]
  AC50: 3.66 µM (active)

## Cn1c2ccccc2c2cc(C(=O)N3CCOCC3)sc21
[13]
  AC50: 28.2 µM (inconclusive)
[8]
  AC50: inconclusive
[14]
  AC50: 39.8 µM (inconclusive)

## COc1ccc(C2C(C#N)=C(N)OC3=C2C(=O)CC(C)(C)C3)cc1 (centres undefined)
[9]
  EC50: 69.7 µM (active)
[10]
  EC50: > 300 µM (not active)

## Cc1ccc(C(=O)NC(=S)Nc2ccc3c(c2)OCCO3)c(C)c1
[8]
  AC50: inconclusive
[14]
  AC50: 17.8 µM (inconclusive)

## O=S(=O)(c1ccccc1)N1CCC2(CC1)CN(c1ccncc1)C2
[13]
  AC50: 39.8 µM (inconclusive)
[8]
  AC50: inconclusive

## O=C(Nc1nnc(SCc2c(Cl)cccc2Cl)s1)C1CCCO1 (centres undefined)
[8]
  AC50: inconclusive
[14]
  AC50: 14.1 µM (inconclusive)

## Cc1ccc(C)n1-c1ccc(C(=O)O)cc1
[9]
  EC50: 13.9 µM (active)
[10]
  EC50: 20.5 µM (inconclusive)

## COc1cc(/C=N/NC(=O)CN2CC(c3ccccc3)CC2=O)ccc1OC(=O)N(C)C (centres undefined)
[8]
  AC50: inconclusive
[14]
  AC50: 22.4 µM (inconclusive)

## CCOc1ccccc1N/C=C(\C#N)c1nc2ccccc2n1C
[15]
  EC50: > 120 µM (not active)
[16]
  EC50: > 120 µM (not active)

## CC(=O)c1ccc(Oc2ncnc3sccc23)cc1
[15]
  EC50: 9.03 µM (active)
[16]
  EC50: 33.2 µM (active)

## COc1ccccc1C(CCNCc1ccc(N(C)C)cc1)c1ccc(OC(C)C)cc1 (centres undefined)
[17]
  AC50: 12.5 µM (active)
[11]
  IC50: 8.29 µM (active)
[3]
  AC50: 7.11 µM (active)
[12]
  AC50: 5.31 µM (active)
[18]
  EC50: > 120 µM (not active)
[19]
  EC50: > 60 µM (not active)
[20]
  EC50: 7.66 µM (active)
[21]
  AC50: 6.48 µM (active)
[22]
  AC50: 12 µM (active)

## CCCCCc1cc(=O)oc2c(C(CCN3CCCC3)c3ccc(N(C)C)cc3)c(OC)cc(OC)c12 (centres undefined)
[11]
  IC50: 6.41 µM (active)

## CCOC(=O)N1CCN(C2=Nc3cccc4cccc2c34)CC1
[9]
  EC50: > 300 µM (not active)
[10]
  EC50: 60.2 µM (active)

## COc1ccc(OC)c(N2C(=O)NC(=O)/C(=C\c3c[nH]c4ccccc34)C2=O)c1
[9]
  EC50: > 300 µM (not active)
[10]
  EC50: > 300 µM (not active)

## COc1ccc(-c2nc(C#N)c(NCc3ccco3)o2)cc1
[15]
  EC50: 31.9 µM (active)
[16]
  EC50: 7.92 µM (active)

— ChEMBL document CHEMBL1201862, “PubChem BioAssay data set” (2004)
